Test systems include Staphylococcus aureus; Bacillus megaterium Bm11; Escherichia coli ML-35; Escherichia coli 078; Escherichia coli 987P; Escherichia coli UB1005; Escherichia coli K88; Escherichia coli K99; Staphylococcus aureus MR.
Holding throughout (assay): ≥ marks a high value that may be exact or a test limit, other limits are often not marked, values filed in µg/mL are converted to µM
Assay [1] concerns Staphylococcus aureus NCTC 10788.
Assay [2] deals with Staphylococcus aureus ATCC 12493.
Assay [3] relates to Candida albicans NCYC 1467.
Assay [4] relates to Pseudomonas aeruginosa ATCC 27853.
Assay [5] has as its system Enterococcus faecalis NCTC 12697.
The test system of assay [6] is Escherichia coli NCTC 10418.
For assay [7], the system named is Klebsiella pneumoniae ATCC 43816.
In assay [8] the test system is Enterococcus faecalis ATCC 19433.
Assay [9] has as its system Enterococcus faecium ATCC 19434.
Assay [10] concerns Proteus mirabilis CCUG 26767.
Assay [11] concerns Staphylococcus aureus ATCC 29213.
Assay [12] concerns Bacillus subtilis ATCC 6633.
The subject of assay [13] is Salmonella enterica subsp. enterica serovar Typhimurium LT2.
Assay [14] concerns Escherichia coli ATCC 25922.
In assay [15] the test system is Klebsiella pneumoniae ATCC 13883.
Assay [16] concerns Staphylococcus aureus 710A.
Assay [17] deals with Salmonella enterica subsp. enterica serovar Typhimurium ATCC 14028.
The test system of assay [18] is Candida tropicalis CGMCC 2.1975.
For assay [19], the system named is Lacticaseibacillus rhamnosus 7469.
For assay [20], the system named is Staphylococcus epidermidis ATCC 12228.
For assay [21], the system named is Salmonella enterica subsp. enterica serovar Typhimurium C77-31.
Assay [22] has as its system Staphylococcus aureus ATCC 25923.
Assay [23] has as its system Candida albicans CGMCC 2.2086.
Assay [24] deals with Pseudomonas aeruginosa PAO1.
Assay [25] deals with Candida parapsilosis CGMCC 2.3989.
The test system of assay [26] is Lactiplantibacillus plantarum 8014.
Assay [27] has as its system Acinetobacter baumannii KCTC 2508.
Assay [28] has as its system Bacillus subtilis KCTC 2217.
In assay [29] the test system is Streptococcus sanguinis ATCC 10556.
Assay [30] has as its system Candida albicans ATCC 5314.
Assay [31] has as its system Staphylococcus aureus ATCC 6538.
Assay [32] deals with Streptococcus mutans ATCC UA159.
Assay [33] has as its system Staphylococcus aureus ATCC 8325-4.

The MIC is the least concentration at which growth counts as inhibited. High values mean a less susceptible organism, low ones a more susceptible organism.

≈ marks a conversion by molar mass, not a printed value. Where “and” joins values, the source holds several entries; their conditions need not be identical. Equal values may be shown once. Where only a bound is given, the exact number is not on record here.

Take `CC(C)C[C@H](NC(=O)[C@H](C)N)C(=O)N[C@@H](Cc1c[nH]c2ccccc12)C(=O)N[C@@H](CCCCN)C(=O)N[C@@H](CCCCN)C(=O)N[C@@H](CC(C)C)C(=O)N[C@@H](CC(C)C)C(=O)N[C@@H](CCCCN)C(=O)N[C@@H](CCCCN)C(=O)N[C@@H](C)C(N)=O` [ALWKKLLKKA]: the MIC in assay [1] is not below 64 µM; in [2], not below 256 µM; in the assay with Staphylococcus aureus it was more than 256 µM; in assay [3] it was not below 64 µM; in assay [4] it was 32 µM (≈ 38.3 µg/mL); in assay [5], not below 256 µM. Also, the minimal inhibitory concentration (MIC) in [6] is 8 µM (≈ 9.58 µg/mL); in [7], not below 256 µM.

Turning to `CC[C@H](C)[C@H](NC(=O)[C@H](CCCCN)NC(=O)[C@@H]1CCCN1C(=O)[C@H](CC(C)C)NC(=O)[C@@H](N)Cc1ccccc1)C(=O)N[C@@H](CC(C)C)C(=O)N[C@@H](CCCN=C(N)N)C(=O)N[C@@H](CCCCN)C(=O)N[C@H](C(=O)N[C@H](C(=O)N[C@@H](CCCN=C(N)N)C(=O)N[C@@H](C)C(=O)N[C@@H](CC(C)C)C(N)=O)C(C)C)[C@@H](C)CC` [FLPKILRKIVRAL], the minimum inhibitory concentration (MIC) was 23.9 µM (≈ 37.5 µg/mL) in assay [8]; 23.9 µM (≈ 37.5 µg/mL) in assay [9]; not below 383 µM in [10]; 191 µM (≈ 300 µg/mL) in [11]; not below 47.9 µM in assay [12]; not below 47.9 µM in assay [13]. Moreover, the minimum inhibitory concentration (MIC) is more than 383 µM in assay [4], 23.9 µM (≈ 37.5 µg/mL) in assay [14] and not below 47.9 µM in assay [15].

Regarding `CC[C@H](C)[C@H](NC(=O)[C@H](CCCCN)NC(=O)[C@H](CCCCN)NC(=O)[C@H](CC(C)C)NC(=O)[C@H](CC(C)C)NC(=O)CN)C(=O)N[C@@H](C)C(=O)N[C@@H](CCCCN)C(=O)N[C@@H](CCCCN)C(=O)N[C@@H](C)C(=O)N[C@@H](CCCCN)C(=O)N[C@@H](CCCCN)C(=O)N[C@@H](C)C(=O)N[C@@H](CC(C)C)C(=O)N[C@@H](CCCCN)C(=O)N[C@@H](CCCCN)C(=O)N[C@@H](CC(C)C)C(=O)NCC(=O)N[C@@H](Cc1ccc(O)cc1)C(N)=O` [GLLKKIAKKAKKALKKLGY], the minimal inhibitory concentration (MIC) in [16] was found to be 4 µM (≈ 8.39 µg/mL); in [17], 2 µM (≈ 4.2 µg/mL); with Bacillus megaterium Bm11, 1 µM (≈ 2.1 µg/mL); in assay [4] it was 1 µM (≈ 2.1 µg/mL); against Escherichia coli ML-35, 1 µM (≈ 2.1 µg/mL).

As for `CC[C@H](C)[C@H](N)C(=O)N[C@@H](Cc1cnc[nH]1)C(=O)N[C@@H](Cc1cnc[nH]1)C(=O)N[C@H](C(=O)N[C@@H](Cc1cnc[nH]1)C(=O)N[C@@H](Cc1cnc[nH]1)C(=O)N[C@H](C(N)=O)[C@@H](C)CC)[C@@H](C)CC` [IHHIHHI], the MIC in assay [18] is not below 64 µM; in assay [19] it was not below 64 µM; in [20], more than 64 µM; in [21] it was not below 64 µM; in assay [17] it was more than 64 µM; in the assay on Escherichia coli 078, not below 64 µM. The MIC in assay [11] was more than 64 µM; in assay [22], more than 64 µM; in assay [23] it was not below 64 µM; against Escherichia coli 987P, not below 64 µM; in assay [24] it was more than 64 µM; against Escherichia coli UB1005, not below 64 µM. In addition, the MIC was more than 64 µM in assay [4]; not below 64 µM in the assay with Escherichia coli K88; not below 64 µM in assay [25]; more than 64 µM in [14]; not below 64 µM in assay [26]; not below 64 µM against Escherichia coli K99.

As for `CC(C)C[C@H](NC(=O)[C@H](CC(C)C)NC(=O)[C@H](CCCCN)NC(=O)[C@H](CCCCN)NC(=O)[C@H](CC(C)C)NC(=O)[C@H](CC(C)C)NC(=O)[C@@H]1CCCN1C(=O)[C@H](CCCCN)NC(=O)[C@H](CCCCN)NC(=O)[C@H](CC(C)C)NC(=O)[C@H](CC(C)C)NC(=O)[C@H](CCCCN)NC(=O)[C@H](CCCCN)NC(=O)[C@H](Cc1c[nH]c2ccccc12)NC(=O)[C@@H](N)CCCCN)C(=O)N[C@@H](CCCCN)C(N)=O` [KWKKLLKKPLLKKLLK], the MIC is 1.56 µM and > 0.78 µM in [22]; 3.13 µM (≈ 6.27 µg/mL) in [27]; 1.56 µM (≈ 3.13 µg/mL) in assay [28].

Consider `CC[C@H](C)[C@H](NC(=O)[C@H](CCCCN)NC(=O)[C@H](CCCN=C(N)N)NC(=O)[C@H](CCC(=O)O)NC(=O)[C@H](Cc1ccc(O)cc1)NC(=O)[C@@H](N)CO)C(=O)N[C@@H](CC(N)=O)C(=O)N[C@@H](CCCN=C(N)N)C(=O)N[C@@H](Cc1cnc[nH]1)C(=O)N[C@@H](Cc1ccccc1)C(=O)N[C@@H](CCCCN)C(=O)N[C@H](C(=O)N[C@@H](CC(C)C)C(=O)N[C@@H](CCCCN)C(=O)N[C@@H](CCCCN)C(=O)N[C@@H](CC(N)=O)C(=O)N[C@@H](CC(C)C)C(=O)N[C@@H](CCCCN)C(=O)N[C@@H](CCCCN)C(=O)N[C@@H](CCCCN)C(N)=O)[C@@H](C)O` [SYERKINRHFKTLKKNLKKK], for which the MIC in [29] amounted to 25 µM (≈ 64 µg/mL); against Staphylococcus aureus it was 6.25 µM (≈ 16 µg/mL); in assay [11], 12.5 µM (≈ 32 µg/mL); in assay [30], 25 µM (≈ 64 µg/mL); in assay [31] it was 12.5 µM (≈ 32 µg/mL); in assay [32], 25 µM (≈ 64 µg/mL). Moreover, the results for the minimal inhibitory concentration (MIC) (in [22]; in assay [33]; against Staphylococcus aureus MR) were 12.5 µM (≈ 32 µg/mL), 6.25 µM (≈ 16 µg/mL) and 12.5 µM (≈ 32 µg/mL), respectively.

(Values after DBAASP.)
